PubChem BioAssay (NCI)
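GI50 = concentration required for 50% inhibition of growth. TGI marks complete inhibition of growth.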

Tests used:
Test in all cases: NCI-60 cell line screen, 384-well format
PC-3 prostate = system: PC-3 prostate
SF-268 CNS = system: SF-268 CNS
ACHN renal = system: ACHN renal
TK-10 renal = system: TK-10 renal
MDA-MB-231 breast = system: MDA-MB-231 breast
DU-145 prostate = system: DU-145 prostate
CAKI-1 renal = system: CAKI-1 renal
NCI-H23 lung = system: NCI-H23 lung
UACC-62 melanoma = system: UACC-62 melanoma
M14 melanoma = system: M14 melanoma
HCT-116 colon = system: HCT-116 colon
NCI-H460 NSCLC = system: NCI-H460 NSCLC
NCI-H322M lung = system: NCI-H322M lung
RXF 393 renal = system: RXF 393 renal
BT-549 breast = system: BT-549 breast
SNB-19 CNS = system: SNB-19 CNS
COLO 205 colon = system: COLO 205 colon
SK-OV-3 ovarian = system: SK-OV-3 ovarian
HS 578T breast = system: HS 578T breast
UO-31 renal = system: UO-31 renal
SK-MEL-5 melanoma = system: SK-MEL-5 melanoma
SR leukemia = system: SR leukemia
HOP-62 NSCLC = system: HOP-62 NSCLC
HOP-92 NSCLC = system: HOP-92 NSCLC
MOLT-4 leukemia = system: MOLT-4 leukemia
SK-MEL-28 melanoma = system: SK-MEL-28 melanoma
NCI-H522 lung = system: NCI-H522 lung
SW-620 colon = system: SW-620 colon
MDA-MB-435 melanoma = system: MDA-MB-435 melanoma
KM12 colon = system: KM12 colon
UACC-257 melanoma = system: UACC-257 melanoma
SNB-75 CNS = system: SNB-75 CNS
MCF7 breast = system: MCF7 breast
A498 renal = system: A498 renal
SK-MEL-2 melanoma = system: SK-MEL-2 melanoma
MDA-MB-468 breast = system: MDA-MB-468 breast
OVCAR-4 ovarian = system: OVCAR-4 ovarian
NCI-H226 lung = system: NCI-H226 lung
HT29 colon = system: HT29 colon
MALME-3M melanoma = system: MALME-3M melanoma
OVCAR-5 ovarian = system: OVCAR-5 ovarian
SF-539 CNS = system: SF-539 CNS
OVCAR-8 ovarian = system: OVCAR-8 ovarian
HL-60(TB) leukemia = system: HL-60(TB) leukemia
SF-295 CNS = system: SF-295 CNS
U251 glioblastoma = system: U251 glioblastoma
786-0 renal = system: 786-0 renal
HCT-15 colon = system: HCT-15 colon
OVCAR-3 ovarian = system: OVCAR-3 ovarian
EKVX NSCLC = system: EKVX NSCLC
IGROV1 ovarian = system: IGROV1 ovarian
A549 NSCLC = system: A549 NSCLC
SN12C renal = system: SN12C renal
T-47D breast = system: T-47D breast
K-562 leukemia = system: K-562 leukemia

With `C#CC[C@H](c1nc2cc(Cl)ccc2c(=O)n1Nc1ccccc1)N(CCCN)C(=O)c1cccc(Cl)c1F` the GI50 (PC-3 prostate) was 57 nM, the TGI (PC-3 prostate) was 1590 nM and the GI50 (SF-268 CNS) was 48.6 nM. It also gave a TGI (SF-268 CNS) of 1450 nM, a GI50 (ACHN renal) of 1110 nM and a TGI (ACHN renal) of 2320 nM. For the same compound, the GI50 (TK-10 renal) was 1070 nM, the TGI (TK-10 renal) was 2270 nM and the GI50 (MDA-MB-231 breast) was 63 nM. The TGI (MDA-MB-231 breast) was 1700 nM, the GI50 (DU-145 prostate) was 58.9 nM and the TGI (DU-145 prostate) was 1060 nM. The GI50 (CAKI-1 renal) was 795 nM, the TGI (CAKI-1 renal) was 2030 nM and the GI50 (NCI-H23 lung) was 73.7 nM. The TGI (NCI-H23 lung) was 799 nM, the GI50 (UACC-62 melanoma) was 51.7 nM and the TGI (UACC-62 melanoma) was 1440 nM. For the same compound, the GI50 (M14 melanoma) was 363 nM, the TGI (M14 melanoma) was 1440 nM and the GI50 (HCT-116 colon) was 36.5 nM. It also gave a TGI (HCT-116 colon) of 1170 nM, a GI50 (NCI-H460 NSCLC) of 48 nM and a TGI (NCI-H460 NSCLC) of 1120 nM. It also gave a GI50 (NCI-H322M lung) of 52.8 nM, a TGI (NCI-H322M lung) of 1520 nM and a GI50 (RXF 393 renal) of 41 nM. It also gave a TGI (RXF 393 renal) of 288 nM, a GI50 (BT-549 breast) of 166 nM and a TGI (BT-549 breast) of 1080 nM. It also gave a GI50 (SNB-19 CNS) of 863 nM, a TGI (SNB-19 CNS) of 2160 nM and a GI50 (COLO 205 colon) of 30.3 nM. For the same compound, the TGI (COLO 205 colon) was 82.9 nM, the GI50 (SK-OV-3 ovarian) was 29.9 nM and the TGI (SK-OV-3 ovarian) was 648 nM. The GI50 (HS 578T breast) was 17.8 nM, the TGI (HS 578T breast) was 44.8 nM and the GI50 (UO-31 renal) was 1790 nM. It also gave a TGI (UO-31 renal) of 3180 nM, a GI50 (SK-MEL-5 melanoma) of 77.4 nM and a TGI (SK-MEL-5 melanoma) of 737 nM. It also gave a GI50 (SR leukemia) of 18.9 nM, a TGI (SR leukemia) of 34.3 nM and a GI50 (HOP-62 NSCLC) of 354 nM. For the same compound, the TGI (HOP-62 NSCLC) was 1540 nM, the GI50 (HOP-92 NSCLC) was 674 nM and the TGI (HOP-92 NSCLC) was 2140 nM. For the same compound, the GI50 (MOLT-4 leukemia) was 19.4 nM, the TGI (MOLT-4 leukemia) was 34.4 nM and the GI50 (SK-MEL-28 melanoma) was 1290 nM. For the same compound, the TGI (SK-MEL-28 melanoma) was 2560 nM, the GI50 (NCI-H522 lung) was 20 nM and the TGI (NCI-H522 lung) was 40.2 nM. For the same compound, the GI50 (SW-620 colon) was 65.2 nM, the TGI (SW-620 colon) was 1250 nM and the GI50 (MDA-MB-435 melanoma) was 17.8 nM. The TGI (MDA-MB-435 melanoma) was 35.9 nM, the GI50 (KM12 colon) was 56.8 nM and the TGI (KM12 colon) was 670 nM. It also gave a GI50 (UACC-257 melanoma) of 60.4 nM, a TGI (UACC-257 melanoma) of 1900 nM and a GI50 (SNB-75 CNS) of 58.9 nM. For the same compound, the TGI (SNB-75 CNS) was 1530 nM, the GI50 (MCF7 breast) was 23.1 nM and the TGI (MCF7 breast) was 1110 nM. The GI50 (A498 renal) was 553 nM, the TGI (A498 renal) was 1820 nM and the GI50 (SK-MEL-2 melanoma) was 21.6 nM. For the same compound, the TGI (SK-MEL-2 melanoma) was 43.5 nM, the GI50 (MDA-MB-468 breast) was 18.3 nM and the TGI (MDA-MB-468 breast) was 39.6 nM. It also gave a GI50 (OVCAR-4 ovarian) of 521 nM, a TGI (OVCAR-4 ovarian) of 2090 nM and a GI50 (NCI-H226 lung) of 1110 nM. The TGI (NCI-H226 lung) was 2310 nM, the GI50 (HT29 colon) was 36.1 nM and the TGI (HT29 colon) was 173 nM. The GI50 (MALME-3M melanoma) was 189 nM, the TGI (MALME-3M melanoma) was 1760 nM and the GI50 (OVCAR-5 ovarian) was 468 nM. It also gave a TGI (OVCAR-5 ovarian) of 1860 nM, a GI50 (SF-539 CNS) of 27.3 nM and a TGI (SF-539 CNS) of 75.1 nM. It also gave a GI50 (OVCAR-8 ovarian) of 189 nM, a TGI (OVCAR-8 ovarian) of 1220 nM and a GI50 (HL-60(TB) leukemia) of 19.9 nM. For the same compound, the TGI (HL-60(TB) leukemia) was 34.6 nM, the GI50 (SF-295 CNS) was 227 nM and the TGI (SF-295 CNS) was 650 nM. For the same compound, the GI50 (U251 glioblastoma) was 45 nM, the TGI (U251 glioblastoma) was 1330 nM and the GI50 ([…]-0 renal) was 678 nM. For the same compound, the TGI (786-0 renal) was 1960 nM, the GI50 (HCT-15 colon) was 1500 nM and the TGI (HCT-15 colon) was 2850 nM. For the same compound, the GI50 (OVCAR-3 ovarian) was 30.2 nM, the TGI (OVCAR-3 ovarian) was 277 nM and the GI50 (EKVX NSCLC) was 89.6 nM. The TGI (EKVX NSCLC) was 1460 nM, the GI50 (IGROV1 ovarian) was 1030 nM and the TGI (IGROV1 ovarian) was 2220 nM. For the same compound, the GI50 (A549 NSCLC) was 62.5 nM, the TGI (A549 NSCLC) was 1880 nM and the GI50 (SN12C renal) was 109 nM. For the same compound, the TGI (SN12C renal) was 1860 nM, the GI50 (T-47D breast) was 57.7 nM and the TGI (T-47D breast) was 1600 nM. The GI50 (K-562 leukemia) was 44.9 nM and the TGI (K-562 leukemia) was 219 nM.
